Experimental data taken from US5756473A, “6-O-methyl erythromycin D and process for making” (Abbott Laboratories, priority 1995, dated 1998).
In brackets after ≈: the same amount, converted by molar mass. Read-outs that look alike come from different tables or passages of the source.

How the values were obtained:
Mycobaceterium smegmatis = assay: In vitro antibacterial activity, agar dilution MIC (Mycobaceterium smegmatis); format: cell-based
Experimental: (§1) The 6-O-methyl erythromycin D compound of the present invention was assayed in vitro for antibacterial activity as follows: Twelve petri dishes containing successive aqueous dilutions of the test compound mixed with 10 mL of sterilized Brain Heart Infusion (BHI) agar (Difco 0418-01-5) were prepared. Each plate was inoculated with 1:100 (or 1:10 for slow-growing strains, such as Micrococcus and Streptococcus) dilutions of up to 32 different microorganisms, using a Steers replicator block. The inoculated plates were incubated at 35°-37° C. for 20 to 24 hours. In addition, a control plate, using BHI agar containing no test compound, was prepared and incubated at the beginning and end of each test.
(§2) An additional plate containing a compound having known susceptibility patterns for the organisms being tested and belonging to the same antibiotic class as the test compound was also prepared and incubated as a further control, as well as to provide test-to-test comparability. Erythromycin A was used for this purpose.
(§3) After incubation, each disk was read. The minimum inhibitory concentration (MIC) was defined as the lowest concentration of drug yielding no growth, a slight haze, or sparsely isolated colonies on the inoculum spot as compared to the growth control.

Micrococcus luteus = assay: In vitro antibacterial activity, agar dilution MIC (Micrococcus luteus); format: cell-based
Experimental: as §1, §2, §3

Escherichia coli = assay: In vitro antibacterial activity, agar dilution MIC (Escherichia coli); format: cell-based; settings: 35-37 °C, 20 to 24 hours
[1] = test system: Staphylococcus epidermidis; assay: In vitro antibacterial activity, agar dilution MIC (Staphylococcus epidermidis); format: cell-based
Experimental: as §1, §2, §3

Staphylococcus aureus = assay: In vitro antibacterial activity, agar dilution MIC (Staphylococcus aureus); format: cell-based; settings: BHI agar, 35-37 °C, 20 to 24 hours
Experimental: as §1, §2, §3

Providencia stuartii = assay: In vitro antibacterial activity, agar dilution MIC (Providencia stuartii); format: cell-based; settings: strain CMX 640, BHI agar, 35-37 °C, 20 to 24 hours
Streptococcus pyogenes = assay: In vitro antibacterial activity, agar dilution MIC (Streptococcus pyogenes); format: cell-based; settings: 35-37 °C, 20 to 24 hours
Experimental: as §1, §2, §3

Pseudomonas aeruginosa = assay: In vitro antibacterial activity, agar dilution MIC (Pseudomonas aeruginosa); format: cell-based; settings: for MIC: Pseudomonas aeruginosa
Experimental: as §1, §2, §3

Nocardia asteroides = assay: In vitro antibacterial activity, agar dilution MIC (Nocardia asteroides); format: cell-based; settings: ATCC9970, strain ATCC 9970, BHI agar, 35-37 °C, 20 to 24 hours
Experimental: as §1, §2, §3

Streptococcus bovis = assay: In vitro antibacterial activity, agar dilution MIC (Streptococcus bovis); format: cell-based; settings: Streptococcus equinus
Experimental: as §1, §2, §3

Streptococcus agalactiae = assay: In vitro antibacterial activity, agar dilution MIC (Streptococcus agalactiae); format: cell-based
Experimental: as §1, §2, §3

Enterobacter aerogenes = assay: In vitro antibacterial activity, agar dilution MIC (Enterobacter aerogenes); format: cell-based; settings: Klebsiella aerogenes, ATCC13048; strain ATCC 13048; BHI agar, 35-37 °C, 20 to 24 hours
Klebsiella pneumoniae = assay: microbe, parasite or virus in culture; settings: ATCC8045
Experimental: as §1, §2, §3

[2] = test system: Acinetobacter calcoaceticus; assay: microbe, parasite or virus in culture
Experimental: as §1, §2, §3

Enterococcus faecium = assay: In vitro antibacterial activity, agar dilution MIC (Enterococcus faecium); format: cell-based; settings: ATCC8043, strain ATCC 8043, BHI agar, 35-37 °C, 20 to 24 hours
microorganisms = assay: In vitro assay of antibacterial activity (overall conclusion); format: cell-based; settings: overall conclusion from Table 1
Experimental: Erythromycin A was used for this purpose.
After incubation, each disk was read.

Candida albicans = assay: microbe, parasite or virus in culture
Experimental: as §1, §2, §3

[3] = strain DC-2, BHI agar, read-out: MIC
[4] = strain Juhl, BHI agar, read-out: MIC
[5] = strain KNK 437, BHI agar, read-out: MIC
[6] = strain SS, BHI agar, read-out: MIC
[7] = Staphylococcus aureus, strain 1775 Cipro R
[8] = Staphylococcus aureus, strain A5177
[9] = Staphylococcus aureus, strain A5278
[10] = strain 2862, BHI agar, 35-37 °C, 20 to 24 hours
[11] = strain 5263, BHI agar, 35-37 °C, 20 to 24 hours
[12] = strain A5007, BHI agar, 35-37 °C, 20 to 24 hours
[13] = strain K799/WT, BHI agar, 35-37 °C, 20 to 24 hours

Row | SMILES | MIC (Micrococcus luteus) | MIC (Escherichia coli; [3]) | MIC (Escherichia coli; strain H560, BHI agar) | MIC (Escherichia coli; [4]) | MIC (Escherichia coli; [5]) | MIC (Escherichia coli; [6]) | MIC (Staphylococcus aureus; [7]) | MIC (Staphylococcus aureus; [8]) | MIC (Staphylococcus aureus; [9]) | MIC (Providencia stuartii) | MIC (Streptococcus pyogenes; strain 930 const, BHI agar) | MIC (Streptococcus pyogenes; strain 2548 induc, BHI agar) | MIC (Pseudomonas aeruginosa) | MIC (Pseudomonas aeruginosa; [10]) | MIC (Pseudomonas aeruginosa; [11]) | MIC (Pseudomonas aeruginosa; [12]) | MIC (Pseudomonas aeruginosa; [13]) | MIC (Nocardia asteroides) | MIC (Enterobacter aerogenes) | MIC (Klebsiella pneumoniae) | other results
1 | CC[C@H]1OC(=O)[C@H](C)[C@@H](O[C@H]2C[C@@](C)(OC)[C@@H](O)[C@H](C)O2)[C@H](C)[C@@H](O[C@@H]2O[C@H](C)C[C@H](N(C)C)[C@H]2O)[C@](C)(O)C[C@@H](C)C(=O)[C@H](C)[C@@H](O)[C@]1(C)O [Erythromycin A, reference compound] | 0.01 µg/mL (≈ 0.0136 µM) | 50 µg/mL (≈ 68.1 µM) | 2.5 µg/mL (≈ 3.41 µM) | 50 µg/mL (≈ 68.1 µM) | 50 µg/mL (≈ 68.1 µM) | 0.2 µg/mL (≈ 0.273 µM) | > 100 µg/mL | 1.56 µg/mL (≈ 2.13 µM) | > 100 µg/mL | > 100 µg/mL | > 100 µg/mL | 6.2 µg/mL (≈ 8.45 µM) | > 100 µg/mL | > 100 µg/mL | > 100 µg/mL | > 100 µg/mL | > 100 µg/mL | 0.05 µg/mL (≈ 0.0681 µM) | 100 µg/mL (≈ 136 µM) | 50 µg/mL (≈ 68.1 µM) | MIC (Mycobaceterium smegmatis): 12.5 µg/mL (≈ 17 µM); MIC (Micrococcus luteus; ATCC9341): 0.05 µg/mL (≈ 0.0681 µM); MIC [1]: 0.2 µg/mL (≈ 0.273 µM); MIC (Staphylococcus aureus; Staphylococcus aureus, ATCC6538P, strain ATCC 6538P): 0.2 µg/mL (≈ 0.273 µM); MIC (Staphylococcus aureus; Staphylococcus aureus, NCTC10649, strain NCTC 10649): 0.2 µg/mL (≈ 0.273 µM); MIC (Staphylococcus aureus; Staphylococcus aureus, strain CMX 553): 0.2 µg/mL (≈ 0.273 µM); MIC (Staphylococcus aureus; Staphylococcus aureus, strain 642a): 0.2 µg/mL (≈ 0.273 µM); MIC (Streptococcus pyogenes; strain EES61, BHI agar): 0.05 µg/mL (≈ 0.0681 µM); MIC (Pseudomonas aeruginosa; strain K799/61, BHI agar, 35-37 °C, 20 to 24 hours): > 100 µg/mL; MIC (Streptococcus bovis): 0.02 µg/mL (≈ 0.0273 µM); MIC (Streptococcus agalactiae): 0.05 µg/mL (≈ 0.0681 µM); MIC [2]: 12.5 µg/mL (≈ 17 µM); MIC (Enterococcus faecium): 0.05 µg/mL (≈ 0.0681 µM)
2 | CC[C@H]1OC(=O)[C@H](C)[C@@H](O[C@H]2C[C@@](C)(O)[C@@H](O)[C@H](C)O2)[C@H](C)[C@@H](O[C@@H]2O[C@H](C)C[C@H](N(C)C)[C@H]2O)[C@](C)(OC)C[C@@H](C)C(=O)[C@H](C)[C@@H](O)[C@H]1C [Example 3, 6-O-Methylerythromycin D] | 1.56 µg/mL (≈ 2.17 µM) | > 100 µg/mL | > 100 µg/mL | > 100 µg/mL | > 100 µg/mL | 0.39 µg/mL (≈ 0.543 µM) | > 100 µg/mL | 3.1 µg/mL (≈ 4.32 µM) | > 100 µg/mL | > 100 µg/mL | > 100 µg/mL | 3.1 µg/mL (≈ 4.32 µM) | 1.56 µg/mL (≈ 2.17 µM) | > 100 µg/mL | > 100 µg/mL | > 100 µg/mL | > 100 µg/mL | 0.05 µg/mL (≈ 0.0696 µM) | > 100 µg/mL | > 100 µg/mL | antibacterial effectiveness (in words) (Mycobaceterium smegmatis; Mycobaceterium smegmatis ATCC 114, comparison with Erythromycin A control): significantly more effective; MIC (Mycobaceterium smegmatis; strain ATCC 114, BHI agar, 35-37 °C, 20 to 24 hours, read-out: MIC): 0.78 µg/mL (≈ 1.09 µM); MIC (Micrococcus luteus; ATCC9341, strain ATCC 9341, BHI agar, 35-37 °C, 20 to 24 hours, read-out: MIC): 0.05 µg/mL (≈ 0.0696 µM); MIC ([1]; strain 3519, BHI agar, 35-37 °C, 20 to 24 hours, read-out: MIC): 0.39 µg/mL (≈ 0.543 µM); MIC (Staphylococcus aureus; Staphylococcus aureus, ATCC6538P, strain ATCC 6538P, read-out: MIC): 0.39 µg/mL (≈ 0.543 µM); MIC (Staphylococcus aureus; Staphylococcus aureus, NCTC10649, strain NCTC 10649, read-out: MIC): 0.39 µg/mL (≈ 0.543 µM); MIC (Staphylococcus aureus; Staphylococcus aureus, strain 642a, read-out: MIC): 0.39 µg/mL (≈ 0.543 µM); MIC (Staphylococcus aureus; strain CMX 553): 0.39 µg/mL (≈ 0.543 µM); MIC (Streptococcus pyogenes; strain EES61, BHI agar, read-out: MIC): 0.05 µg/mL (≈ 0.0696 µM); antibacterial effectiveness (in words) (Pseudomonas aeruginosa; Pseudomonas aeruginosa K799/61, comparison with Erythromycin A control): significantly more effective; MIC (Pseudomonas aeruginosa; strain BMH10, BHI agar, 35-37 °C, 20 to 24 hours): > 100 µg/mL; antibacterial activity (in words) (microorganisms): effective antibacterial agent; MIC (Streptococcus bovis; strain A5169, BHI agar, 35-37 °C, 20 to 24 hours, read-out: MIC): 0.01 µg/mL (≈ 0.0139 µM); MIC (Streptococcus agalactiae; strain 508, BHI agar, 35-37 °C, 20 to 24 hours, read-out: MIC): 0.05 µg/mL (≈ 0.0696 µM); MIC (Candida albicans): > 100 µg/mL; MIC [2]: > 100 µg/mL; MIC (Enterococcus faecium): 0.1 µg/mL (≈ 0.139 µM)
